# Test system: ferricytochrome C
# Test: Control experiments: direct reduction of ferricytochrome C by the product itself
# Type: biochemical
# Conditions: effect not quantifiable
# Source text: This effect not being quantifiable, no conclusion can consequently be drawn on a possible inhibiting effect of these products on the production of the superoxide anion by the activated PMNs.
structure (smiles),measurement,value
"O=c1ccc2cc(O[C@@H]3O[C@H](CO)[C@@H](O)[C@H](O)[C@H]3O)c(O)cc2o1 [esculoside, reference compound]",Direct reduction of ferricytochrome C,powerful reducers of ferricytochrome C

# From patent publication US5670538A, “Use of prodelphinidins for obtaining medicaments intended for the treatment of arthrosis” (Laboratoires Dolisos, priority 1992, dated 1997)
